From ChEMBL document CHEMBL1201862, “PubChem BioAssay data set” (2004)
Activity calls are given as the source filed them.

Experiments:
[1] = biological target: T1, Rac GTPase-activating protein 1 (Homo sapiens, UniProt Q9H0H5); test: MgcRacGAP GTPase-activating activity inhibitors, confirmation, biochemical, ADP Hunter fluorescence, primary and confirmatory (AID 624330); assay type: functional
T1 sequence (Q9H0H5 whole entry): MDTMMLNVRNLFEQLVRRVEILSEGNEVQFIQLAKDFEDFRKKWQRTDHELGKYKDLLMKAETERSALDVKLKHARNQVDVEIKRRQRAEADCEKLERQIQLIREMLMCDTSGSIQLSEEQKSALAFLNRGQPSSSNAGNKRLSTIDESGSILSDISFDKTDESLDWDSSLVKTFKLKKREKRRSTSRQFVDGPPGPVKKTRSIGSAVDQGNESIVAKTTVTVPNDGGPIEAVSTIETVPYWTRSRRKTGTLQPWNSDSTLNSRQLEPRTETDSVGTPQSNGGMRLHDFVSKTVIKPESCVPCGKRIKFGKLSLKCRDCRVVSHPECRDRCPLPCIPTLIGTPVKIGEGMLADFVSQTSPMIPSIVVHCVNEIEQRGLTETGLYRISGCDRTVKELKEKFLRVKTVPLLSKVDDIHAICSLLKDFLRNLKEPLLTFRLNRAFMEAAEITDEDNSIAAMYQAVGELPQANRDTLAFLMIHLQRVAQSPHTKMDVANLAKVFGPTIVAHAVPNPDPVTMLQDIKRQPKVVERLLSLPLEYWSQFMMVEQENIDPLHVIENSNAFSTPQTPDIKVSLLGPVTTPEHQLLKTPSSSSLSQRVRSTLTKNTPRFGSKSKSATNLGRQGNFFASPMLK

[2] = biological target: T2, Streptokinase A (Streptococcus pyogenes serotype M1, UniProt P10520); test: S. pyogenes streptokinase expression inhibitors, potency, dose response, plasminogen activation absorbance, OD405 (AID 1914); assay type: functional, Streptococcus pyogenes M1 GAS;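 note: secreted streptokinase activity via plasminogen activation per viability signal from cell pellet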
T2 sequence (P10520 whole entry): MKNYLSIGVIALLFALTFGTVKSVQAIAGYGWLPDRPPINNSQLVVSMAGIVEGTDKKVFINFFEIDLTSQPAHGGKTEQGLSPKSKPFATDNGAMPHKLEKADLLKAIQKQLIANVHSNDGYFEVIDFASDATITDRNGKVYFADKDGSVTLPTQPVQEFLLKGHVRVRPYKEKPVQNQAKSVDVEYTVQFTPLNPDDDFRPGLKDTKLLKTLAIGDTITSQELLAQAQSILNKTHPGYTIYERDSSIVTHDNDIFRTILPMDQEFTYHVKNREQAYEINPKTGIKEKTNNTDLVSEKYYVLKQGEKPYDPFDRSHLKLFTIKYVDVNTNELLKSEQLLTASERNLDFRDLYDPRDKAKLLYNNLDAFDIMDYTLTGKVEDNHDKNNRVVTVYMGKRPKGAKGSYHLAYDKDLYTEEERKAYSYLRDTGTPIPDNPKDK

[3] = cells; assay type: functional
[4] = tested on: Streptococcus; test: Group A Streptococcus viability loss, dose response, counter-screen for streptokinase expression inhibitor project, luminescence, BacTiterGlo (AID 1915); assay type: functional, organism-based;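 note: potency for reduction of bacterial viability or growth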
[5] = tested on: Streptococcus sp. 'group A'; test: growth inhibition of control SK(-) GAS strain, dose response, counter-screen for streptokinase expression inhibitor project, luminescence, kanamycin, BacTiterGlo, confirmation (AID 1900); assay type: functional, organism-based
[6] = biological target: T3, Heat shock factor protein 1 (Mus musculus, UniProt P38532); test: inhibition of MG132-induced HSE-luciferase signal, confirmation, cell-based, NIH3T3, luminescence, dose retest (AID 2382); assay type: functional;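 note: NIH3T3 fibroblasts with HSF1-driven luciferase reporter stressed by proteasome inhibitor MG132; luminescence from HSF1-driven luciferase expression after 8 hours of MG132 stress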
T3 sequence (P38532 whole entry): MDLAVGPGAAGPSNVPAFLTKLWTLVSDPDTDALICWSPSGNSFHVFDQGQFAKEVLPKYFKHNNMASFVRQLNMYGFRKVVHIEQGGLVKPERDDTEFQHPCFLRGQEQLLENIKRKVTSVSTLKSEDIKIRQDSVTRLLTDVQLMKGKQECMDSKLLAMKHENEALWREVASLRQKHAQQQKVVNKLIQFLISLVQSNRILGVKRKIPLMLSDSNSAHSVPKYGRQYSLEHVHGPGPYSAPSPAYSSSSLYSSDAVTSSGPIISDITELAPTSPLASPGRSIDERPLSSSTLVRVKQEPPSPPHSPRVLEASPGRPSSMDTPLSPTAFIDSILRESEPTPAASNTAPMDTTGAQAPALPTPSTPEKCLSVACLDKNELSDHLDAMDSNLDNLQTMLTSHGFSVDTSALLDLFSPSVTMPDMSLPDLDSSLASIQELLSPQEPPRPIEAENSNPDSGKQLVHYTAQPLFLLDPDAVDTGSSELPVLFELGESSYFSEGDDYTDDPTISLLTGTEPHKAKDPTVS

[7] = Luminescence Cell-Based Dose Response HTS to Identify Activators of Luciferase Translation or Activity in H4 […] Cells. [Related pubchem assays: 1829 (Project Summary), 1814 (Primary HTS)]; assay type: functional
[8] = biological target: Luciferin 4-monooxygenase (Photinus pyralis, UniProt P08659); test: firefly luciferase enzyme inhibitors, dose response, biochemical, luminescence (AID 1891)
Sequence of Luciferin 4-monooxygenase (P08659 whole entry): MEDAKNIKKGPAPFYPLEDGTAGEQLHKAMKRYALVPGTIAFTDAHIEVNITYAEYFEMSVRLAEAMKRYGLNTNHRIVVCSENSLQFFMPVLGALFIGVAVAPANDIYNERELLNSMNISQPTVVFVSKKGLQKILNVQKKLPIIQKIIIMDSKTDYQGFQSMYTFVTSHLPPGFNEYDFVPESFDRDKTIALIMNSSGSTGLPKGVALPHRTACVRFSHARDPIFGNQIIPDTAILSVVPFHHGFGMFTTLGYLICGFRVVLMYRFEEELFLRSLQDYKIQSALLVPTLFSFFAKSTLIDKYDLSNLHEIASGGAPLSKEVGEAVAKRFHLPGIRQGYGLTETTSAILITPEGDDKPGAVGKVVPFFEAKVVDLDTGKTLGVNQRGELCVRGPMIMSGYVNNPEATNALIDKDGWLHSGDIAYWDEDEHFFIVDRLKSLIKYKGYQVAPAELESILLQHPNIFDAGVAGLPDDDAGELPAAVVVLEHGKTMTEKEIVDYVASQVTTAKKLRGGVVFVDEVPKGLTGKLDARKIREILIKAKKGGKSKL

[9] = biological target: T3, Heat shock factor protein 1; test: HSF1 potentiators in luciferase reporter cells, confirmation, cell-based, NIH3T3, luminescence, dose retest (AID 435004); assay type: functional;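 note: stress induced by proteasome inhibitor MG132 added 30 min after compound; luciferase reporter driven by HSF1 response element in NIH3T3 cells; actives raise luminescence as potentiators of the MG132 stress response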
[10] = inhibitors of firefly luciferase expression or activity, dose response, H4 neuroglioma cells, luminescence (AID 1990); assay type: functional, cell-based
[11] = Luminescence Cell-Based Dose Response HTS to Identify Inhibitors of 5'UTR Stem-Loop Driven Prion Protein mRNA Translation in H4 Neuroglioblastoma Cells. [Related pubchem assays: 1827 (Project Summary), 1813 (Primary HTS)]; assay type: functional
[12] = inhibitors of SNCA 5'UTR-driven reporter translation, confirmation, H4 neuroglioma cells, luminescence (AID 1988); assay type: functional, cell-based
[13] = Luminescence Cell-Based Dose Confirmation HTS to Identify Inhibitors of Platelet Dense Granule Release. [Related pubchem assays: 1663 (Primary HTS), 1678 (Summary of Project)]; assay type: functional
[14] = biological target: Paired box protein Pax-8 (Homo sapiens, UniProt Q06710); test: inhibitors of PAX8-driven TPO luciferase reporter, dose response, RMG-I cells, cherry-pick (AID 687027); assay type: functional, cell-based;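 note: luciferase reporter driven by Pax8 target thyroperoxidase promoter measured by SteadyGlo luminescence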
Sequence of Paired box protein Pax-8 (Q06710 whole entry): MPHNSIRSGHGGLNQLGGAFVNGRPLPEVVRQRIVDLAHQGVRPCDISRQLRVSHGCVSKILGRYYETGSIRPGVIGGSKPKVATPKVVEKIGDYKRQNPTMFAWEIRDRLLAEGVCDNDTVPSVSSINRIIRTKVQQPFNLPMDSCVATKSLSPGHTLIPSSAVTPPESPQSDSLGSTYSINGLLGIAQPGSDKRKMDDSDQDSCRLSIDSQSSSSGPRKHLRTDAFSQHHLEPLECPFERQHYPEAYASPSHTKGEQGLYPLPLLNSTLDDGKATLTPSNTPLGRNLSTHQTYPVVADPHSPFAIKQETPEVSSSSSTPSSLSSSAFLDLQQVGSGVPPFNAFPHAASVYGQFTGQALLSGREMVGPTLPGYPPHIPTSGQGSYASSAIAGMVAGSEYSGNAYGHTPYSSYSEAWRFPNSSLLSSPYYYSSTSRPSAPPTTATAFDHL

[15] = biological target: Cytochrome P450 2D6 (Homo sapiens, UniProt P10635);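 note: CYP2D6 member of a cytochrome P450 panel assay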
Sequence of Cytochrome P450 2D6 (P10635 whole entry): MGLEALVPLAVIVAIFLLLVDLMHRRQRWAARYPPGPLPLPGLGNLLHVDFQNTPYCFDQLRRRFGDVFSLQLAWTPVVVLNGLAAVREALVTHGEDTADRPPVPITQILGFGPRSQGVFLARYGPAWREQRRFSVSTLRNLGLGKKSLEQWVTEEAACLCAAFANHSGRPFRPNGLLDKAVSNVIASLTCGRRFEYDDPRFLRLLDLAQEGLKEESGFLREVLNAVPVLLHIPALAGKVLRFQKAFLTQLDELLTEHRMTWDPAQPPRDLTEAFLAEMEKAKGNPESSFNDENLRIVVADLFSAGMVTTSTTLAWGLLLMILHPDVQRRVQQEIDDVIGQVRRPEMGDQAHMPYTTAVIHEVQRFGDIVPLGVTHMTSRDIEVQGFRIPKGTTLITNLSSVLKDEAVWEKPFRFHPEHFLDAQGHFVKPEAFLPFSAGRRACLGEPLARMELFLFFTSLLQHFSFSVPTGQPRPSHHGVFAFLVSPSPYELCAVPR

[16] = tested on: INS1; test: beta cell apoptosis inhibitors, cytokine rescue, dose response, luminescence, retest (AID 449756); assay type: functional, cell-based; details: Rattus norvegicus;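 note: cell death triggered by IL-1 beta plus TNF-alpha plus IFN-gamma mixture; protective hits raise ATP signal compared with cytokine alone wells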
[17] = Luminescence Cell-Based Dose Retest to Confirm Inhibitors of Cancer Stem Cells. [Related pubchem assays (depositor defined):AID2717, AID2721]; assay type: functional, Homo sapiens; details: Homo sapiens
[18] = tested on: H4; test: Luminescence Cell-Based Dose Response HTS to Identify Activators of 5'UTR Stem-Loop Driven Prion Protein mRNA Translation in H4 Neuroglioblastoma Cells. [Related pubchem assays: 1829 (Project Summary), 1814 (Primary HTS)]; assay type: functional; details: Homo sapiens
[19] = biological target: Cytochrome P450 2C19 (Homo sapiens, UniProt P33261); test: Cytochrome panel assay with activity outcomes. Panel member name: p450-cyp2c19 Compounds with AC50 equal or less than 10 uM are considered active; assay type: functional; details: read-out: AC50
Sequence of Cytochrome P450 2C19 (P33261 whole entry): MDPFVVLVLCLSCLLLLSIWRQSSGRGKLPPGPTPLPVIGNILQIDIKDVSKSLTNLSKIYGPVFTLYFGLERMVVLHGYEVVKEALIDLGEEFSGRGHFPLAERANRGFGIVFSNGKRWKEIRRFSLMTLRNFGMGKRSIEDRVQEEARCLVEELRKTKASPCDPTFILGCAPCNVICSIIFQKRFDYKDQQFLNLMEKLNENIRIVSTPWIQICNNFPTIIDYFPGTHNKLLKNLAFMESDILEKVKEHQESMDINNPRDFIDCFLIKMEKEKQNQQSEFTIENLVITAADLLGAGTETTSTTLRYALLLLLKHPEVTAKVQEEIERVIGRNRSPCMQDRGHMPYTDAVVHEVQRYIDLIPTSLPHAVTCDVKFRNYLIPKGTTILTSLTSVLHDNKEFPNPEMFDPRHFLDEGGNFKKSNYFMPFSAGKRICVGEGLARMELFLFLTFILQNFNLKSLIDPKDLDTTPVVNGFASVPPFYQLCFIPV

## CN1CCc2c1nc1ccccc1c2NC(=O)CN1CCCC1
[1]
  IC50: 117 µM (active)

## C=C(C)C1Cc2c(C)nn(-c3nc(C)cc(C)n3)c2C1 (configuration not stated)
[2]
  EC50: > 150 µM (not active)
[3]
  IC50: 3.19 µM (active)
[4]
  EC50: > 150 µM (not active)
[5]
  EC50: 25 µM (active)

## O=C(COC(=O)c1cccs1)c1ccc2c(c1)OCCO2
[6]
  EC50: 0.213 µM (active)
[7]
  EC50: < 0.1 µM (active)

## COc1ccccc1NC(=O)N(Cc1ccco1)Cc1cc2ccc(C)c(C)c2nc1O
[8]
  EC50: > 112 µM (not active)
[9]
  EC50: > 260 µM (inactive)
[10]
  EC50: > 60 µM (not active)
[11]
  EC50: 27.6 µM (active)
[12]
  EC50: 11 µM (active)
[13]
  EC50: > 112 µM (not active)

## COc1cc2c(cc1OC)CN(C(=O)CNS(=O)(=O)c1ccc(C)c(C)c1)CC2
[10]
  EC50: > 120 µM (not active)
[11]
  EC50: > 120 µM (not active)
[12]
  EC50: > 120 µM (not active)

## CCN(CC)c1ccc(NC(=O)c2ccc(S(=O)(=O)N3CCOCC3)cc2)cc1
[1]
  IC50: 71.9 µM (active)

## CSCCC(c1nnnn1-c1ccc2c(c1)OCCO2)N1CCC(n2c(O)nc3ccccc32)CC1 (configuration not stated)
[14]
  AC50: 2.14 µM (active)

## CCOc1ccc(S(=O)(=O)N2CCC(C(=O)N3CCOCC3)CC2)cc1C
[10]
  EC50: 16.4 µM (active)
[11]
  EC50: > 120 µM (not active)
[12]
  EC50: > 120 µM (not active)

## O=C(Nc1nnc(-c2ccc(Cl)cc2)o1)C1=COCCO1
[3]
  IC50: 4.83 µM (active)

## CS(=O)(=O)Nc1cccc(-c2ccc3ncnc(Nc4ccccc4)c3c2)c1
[15]
  AC50: 25.1 µM (inconclusive)

## Cc1ccc(C)c(OCCn2cc(/C=C(\C#N)C(=O)NCc3ccco3)c3ccccc32)c1
[10]
  EC50: > 120 µM (not active)
[11]
  EC50: 17.1 µM (active)
[12]
  EC50: 25.1 µM (active)

## CC(C)OCCCNC(=O)c1cccc(NC(=O)c2ccccc2)c1
[14]
  AC50: 41.6 µM (active)

## COc1ccc(NCc2cc(O)nc3ccccc23)cc1
[1]
  IC50: 50.5 µM (active)

## COCCOC(=O)c1c(C)oc2ccc(OC(=O)c3ccco3)cc12
[3]
  IC50: > 50 µM (active)

## CCCCNC(=O)c1ccc(Cn2c(=S)[nH]c3c([nH]c4ccc(OC)cc43)c2=O)cc1
[6]
  EC50: 3.02 µM (active)
[16]
  AC50: 5.01 µM (active)
[17]
  AC50: 0.687 µM (active)

## CC(=O)Oc1ccc(C)cc1-n1nc2ccccc2n1
[18]
  EC50: 2.63 µM (active)
[7]
  EC50: 0.445 µM (active)

## Cc1ccc(NC(=O)CN(C)C(S)=NC2CC2)cc1
[10]
  EC50: > 120 µM (not active)
[11]
  EC50: > 120 µM (not active)
[12]
  EC50: > 120 µM (not active)

## Cn1ccnc1SCC(=O)Nc1sccc1C#N
[15]
  AC50: 25.1 µM (inconclusive)
[19]
  AC50: 7.08 µM (inconclusive)

## COc1cc2c3c(c1OC)C1(C=CC(=NO)C=C1)CC3N(C(C)=O)CC2 (configuration not stated)
[10]
  EC50: > 120 µM (not active)
[11]
  EC50: > 120 µM (not active)
[12]
  EC50: > 120 µM (not active)
